PMC4284078 (Virology, 2014)

test: FTIR spectroscopy secondary structure; type: physicochemical; conditions: 2 mM peptide in deuterated 10 mM phosphate buffer pD 5.6, 25°C, means of four separate determinations, SE ± 5% or better

Substance	% Conformation Disordered [%]	% Conformation Turn [%]	% Conformation α-Helix [%]	% Conformation β-Sheet [%]
Cys^S- Ser Phe Arg Val Gly Leu His Glu Tyr Pro Cys^s -CON H2 (disulfide) [HCV3]	12.04	21.96	11.60	54.34
Val Ser Phe Arg Val Gly Leu His Glu Tyr Pro Val -CON H2 [HCV1]	23.74	31.05	2.10	43.11
Pal-Ahx-Ahx- Arg Cys^S- Arg Phe Arg Val D-Pro Cha His Arg Tyr Arg Cys^S- Arg -CON H2 (disulfide) [HCV6]	14.40	20.39	12.34	52.87
Arg Cys^S- Arg Phe Arg Val D-Pro Cha His Arg Tyr Arg Cys^s Arg -CON H2 (disulfide) [HCV5]	12.83	25.72	10.55	50.90
